{"source": "patent US20200010910A1", "about": "“Cytotoxic Chemotherapy-Based Predictive Assays for Acute Myeloid Leukemia” (The Regents of The University of California, priority 2017, published 2020)", "key": {"H23 [1]": {"system": "H23", "assay": "MTT assay IC50", "format": "cell-based, human", "protocol": "(§1) Six non-small cell lung cancer (NSCLC) cell lines were treated in culture with [^14C]carboplatin. Carboplatin-DNA monoadduct levels over time were determined by measuring ^14C content in genomic DNA with accelerator mass spectrometry (AMS). Cellular sensitivity to carboplatin and cisplatin was analyzed by the MTT assay (Henderson et al., International Journal of Cancer 2011).\n(§2) Human NSCLC cell lines H23, H460, H727, HCC827, H1975, and A549 were purchased from ATCC and were cultured with the recommended medium. The MTT assay was performed as previously reported to determine the drug concentration required to inhibit cell growth by 50% (IC50) of cisplatin and carboplatin. [^14C]Carboplatin (at 53 mCi/mmol) was mixed with unlabeled carboplatin to achieve the specific activities required for microdoses and therapeutic doses. Table 1 lists the six NSCLC cell lines and summarizes their IC50 characteristics, induced carboplatin-DNA monoadducts when treated with [^14C]carboplatin, and p and r^2 values for correlation analysis to the IC50 concentrations."}, "H460 [2]": {"system": "H460", "assay": "MTT assay IC50", "format": "cell-based, human", "protocol": "as §1, §2"}, "HCC827 [3]": {"system": "HCC827", "assay": "MTT assay IC50", "format": "cell-based, human", "protocol": "as §1, §2"}, "H727 [4]": {"system": "H727", "assay": "MTT assay IC50", "format": "cell-based, human", "protocol": "as §1, §2"}, "H1975 [5]": {"system": "H1975", "assay": "MTT assay IC50", "format": "cell-based, human", "protocol": "as §1, §2"}, "A549 [6]": {"system": "A549", "assay": "MTT assay IC50", "format": "cell-based, human", "protocol": "as §1, §2"}, "H23 [7]": {"system": "H23", "assay": "carboplatin-DNA monoadducts by AMS", "format": "cell-based, human", "protocol": "(§3) NSCLC cell lines were cultured to >90% confluence, dosed with [^14C]carboplatin, and subjected to DNA isolation and AMS analysis. 60 mm dishes were seeded at a density of 1×10^6 cells/dish and allowed to attach overnight in a 37° C. humidified atmosphere containing 5% CO2. At hour 0, cells were dosed with 1 μM (relevant microdose concentration) or 100 μM carboplatin (therapeutically relevant concentration), each comprising 0.3 μM [^14C]carboplatin (50,000 dpm/ml). Cells were incubated with [^14C]carboplatin for 4 h before washing and cultured with carboplatin-free medium to mimic the in vivo carboplatin half-life (1.3-6 hours) in patients. DNA was harvested from the cell lines at hours 0, 2, 4, 8 and 24 hours after initial dosing. Ten micrograms of DNA per sample was converted to graphite and measured by AMS for ^14C/total C quantification. Triplicate sets of AMS experiments were performed for each cell line and time point. The 14C/total C ratio was converted to 14C atoms per DNA base-pair according to the algorithm described herein to provide values of carboplatin-DNA monoadducts per 10^8 nucleotides. The data was plotted as carboplatin-DNA monoadducts per 10^8 nucleotide (nt) vs time (FIGS. 8A and 8B). There was a time-dependent increase in the carboplatin-DNA monoadduct concentration during the first 4 hours of incubation with therapeutic or microdosing carboplatin (FIGS. 8A and 8B). After the cells were washed and incubated with carboplatin-free media, the monoadduct levels decreased over a period of several hours. […] Carboplatin-DNA monoadduct levels in the microdosing group had essentially the same kinetics as the therapeutic group, but with 100-fold lower adduct levels at each time point (FIGS. 8A and 8B)."}, "H460 [8]": {"system": "H460", "assay": "carboplatin-DNA monoadducts by AMS", "format": "cell-based, human", "protocol": "as §3"}, "HCC827 [9]": {"system": "HCC827", "assay": "carboplatin-DNA monoadducts by AMS", "format": "cell-based, human", "protocol": "as §3"}, "H727 [10]": {"system": "H727", "assay": "carboplatin-DNA monoadducts by AMS", "format": "cell-based, human", "protocol": "as §3"}, "H1975 [11]": {"system": "H1975", "assay": "carboplatin-DNA monoadducts by AMS", "format": "cell-based, human", "protocol": "as §3"}, "A549 [12]": {"system": "A549", "assay": "carboplatin-DNA monoadducts by AMS", "format": "cell-based, human", "protocol": "as §3"}, "H23 2A tumor xenograph": {"system": "H23 2A tumor xenograph", "assay": "tumor response to therapeutic carboplatin", "format": "in vivo, nude mice", "conditions": "sensitive H23 2A xenograph; single IV 37.3 mg/kg; 14 days", "description": "Xenograft mouse tumors consisting of one carboplatin resistant and one sensitive tumor type were established for in vivo evaluation of carboplatin-DNA monoadduct formation and repair in tumor tissue and for in vivo evaluation of tumor response to therapeutic dosing with carboplatin. Tumor xenografts were established in 1-2 month old nude mice by injecting approximately one million cells into the left and right flanks, and allowed to develop tumors of less than 1 cm^3 over approximately 4 weeks prior to DNA adduct studies. Mice bearing resistant and sensitive tumors were exposed to either a microdose or therapeutic dose of carboplatin by tail vein injection. DNA isolated from tumor tissue was evaluated for carboplatin-DNA monoadduct frequency levels as a function of time. For tumor response, mice bearing resistant and sensitive tumors were therapeutically treated with a single IV injection of 37.3 mg/kg of carboplatin and then examined for tumor growth as assessed by measuring palpable tumors with a caliper and calculating tumor volume.\nMice xenografted with sensitive (H232A) and resistant (A549) lung cancer cell lines were infused with a therapeutic dose of carboplatin to assess tumor response. The tumors were measured daily over 14 days post infusion (FIG. 10C). Tumor size was normalized as the ratio of tumor diameter to the tumor diameter measured on day 0 (no change=1.0). […]"}, "[13]": {"assay": "safety of radiolabeled microdose in patients", "conditions": "IV microdose, 1% of the therapeutic dose", "experimental": "Microdoses of the [^14C]Carboplatin were administered to human cancer patients as a diagnostic reagent, followed by full dose platinum-based chemotherapy and evaluation of response. Within four weeks of the [^14C]carboplatin microdose, these patients received standard of care chemotherapy for their disease, which included either carboplatin or cisplatin. The patient population consisted of non-small cell lung cancer patients (NSCLC), stage IV with measurable lesions, and bladder transitional cell carcinoma (TCC) patients, stage II disease and above for neoadjuvant treatment, or stage III and IV metastatic disease with measurable lesions for palliative chemotherapy. Patients were identified for this study as having measurable lesions using the Response Evaluation Criteria in Solid Tumor (RECIST), an Eastern Cooperative Oncology Group performance status of <2, and adequate bone marrow and vital organ function. PBMC and tumor tissue were collected from the patients for analysis of carboplatin-DNA monoadduct frequencies. Toxicity of the [^14C]carboplatin diagnostic reagent administered as a microdose was assessed using Common Terminology Criteria for Adverse Events (CTCAE). Toxicities of grade 3 and above were also collected for patient specific toxic response to full dose chemotherapy for correlation analysis to carboplatin-DNA monoadduct frequency. Patient response to chemotherapy was evaluated using the RECIST for correlation to carboplatin-DNA monoadduct frequency.\nThe dose of carboplatin in the diagnostic microdose was chosen to be sub-toxic and non-therapeutic, to minimize patient chemical and radiation exposure, and to result in AMS measurable carboplatin-DNA monoadducts. Nineteen patients have been administered at least one microdose of [^14C]carboplatin via IV infusion as a diagnostic reagent. Patient toxicity related to the microdose was monitored from the time of IV microdose until the patients received their first chemotherapy. […] The total radioactive dose given to a 75 kg patient after an IV microdose of [^14C]carboplatin is calculated to be 338 μCi. […]"}, "[14]": {"conditions": "1 μM carboplatin 4 h, up to 24 hours"}, "[15]": {"conditions": "1 μM carboplatin 4 h then drug-free"}, "[16]": {"conditions": "100 μM carboplatin 4 h, up to 24 hours"}, "[17]": {"conditions": "100 μM carboplatin 4 h then drug-free"}}}
{"smiles": "N.N.O=C([O-])C1(C(=O)[O-])CCC1.[Pt+2]", "note": "[carboplatin]", "values": [{"measurement": "IC50", "setting": "H23 [1]", "result": "19.4 ± 8.65", "unit": "µM"}, {"measurement": "IC50", "setting": "H460 [2]", "result": "22 ± 5.23", "unit": "µM"}, {"measurement": "IC50", "setting": "HCC827 [3]", "result": "86.2 ± 10.9", "unit": "µM"}, {"measurement": "IC50", "setting": "H727 [4]", "result": "53.5 ± 3.65", "unit": "µM"}, {"measurement": "IC50", "setting": "H1975 [5]", "result": "88.5 ± 30.8", "unit": "µM"}, {"measurement": "IC50", "setting": "A549 [6]", "result": 196, "unit": "µM"}, {"measurement": "Adduct level-4 hr-microdose", "setting": "H23 [7]; 1 μM carboplatin", "result": "7.4 ± 1.4 /10^8 nt"}, {"measurement": "AUC of adduct-microdose", "setting": "H23 [7]; [14]", "result": "136.6 ± 9.0", "unit": "hr-adducts/10^8 nt"}, {"measurement": "Adduct level-24 hr Microdose", "setting": "H23 [7]; [15]", "result": "5.4 ± 0.1 /10^8 nt"}, {"measurement": "Adduct level-4 hr-therapeutic", "setting": "H23 [7]; 100 μM carboplatin", "result": "825 ± 5.8 /10^8 nt"}, {"measurement": "AUC of adduct-therapeutic", "setting": "H23 [7]; [16]", "result": "13255 ± 835", "unit": "hr-adducts/10^8 nt"}, {"measurement": "Adduct level-24 hr-therapeutic", "setting": "H23 [7]; [17]", "result": "414 ± 27.1 /10^8 nt"}, {"measurement": "Adduct level-4 hr-microdose", "setting": "H460 [8]; 1 μM carboplatin", "result": "6.8 ± 0.2 /10^8 nt"}, {"measurement": "AUC of adduct-microdose", "setting": "H460 [8]; [14]", "result": "85.6 ± 8.4", "unit": "hr-adducts/10^8 nt"}, {"measurement": "Adduct level-24 hr Microdose", "setting": "H460 [8]; [15]", "result": "1.0 ± 0.4 /10^8 nt"}, {"measurement": "Adduct level-4 hr-therapeutic", "setting": "H460 [8]; 100 μM carboplatin", "result": "885 ± 36.3 /10^8 nt"}, {"measurement": "AUC of adduct-therapeutic", "setting": "H460 [8]; [16]", "result": "9488 ± 902", "unit": "hr-adducts/10^8 nt"}, {"measurement": "Adduct level-24 hr-therapeutic", "setting": "H460 [8]; [17]", "result": "177 ± 11.5 /10^8 nt"}, {"measurement": "Adduct level-4 hr-microdose", "setting": "HCC827 [9]; 1 μM carboplatin", "result": "2.5 ± 0.0 /10^8 nt"}, {"measurement": "AUC of adduct-microdose", "setting": "HCC827 [9]; [14]", "result": "51.7 ± 2.4", "unit": "hr-adducts/10^8 nt"}, {"measurement": "Adduct level-24 hr Microdose", "setting": "HCC827 [9]; [15]", "result": "1.8 ± 0.3 /10^8 nt"}, {"measurement": "Adduct level-4 hr-therapeutic", "setting": "HCC827 [9]; 100 μM carboplatin", "result": "295 ± 58.8 /10^8 nt"}, {"measurement": "AUC of adduct-therapeutic", "setting": "HCC827 [9]; [16]", "result": "4941 ± 739", "unit": "hr-adducts/10^8 nt"}, {"measurement": "Adduct level-24 hr-therapeutic", "setting": "HCC827 [9]; [17]", "result": "162 ± 15.4 /10^8 nt"}, {"measurement": "Adduct level-4 hr-microdose", "setting": "H727 [10]; 1 μM carboplatin", "result": "6.23 ± 2.73 /10^8 nt"}, {"measurement": "AUC of adduct-microdose", "setting": "H727 [10]; [14]", "result": "61.7 ± 9.0", "unit": "hr-adducts/10^8 nt"}, {"measurement": "Adduct level-24 hr Microdose", "setting": "H727 [10]; [15]", "result": "1.3 ± 0.1 /10^8 nt"}, {"measurement": "Adduct level-4 hr-therapeutic", "setting": "H727 [10]; 100 μM carboplatin", "result": "684 ± 223.5 /10^8 nt"}, {"measurement": "AUC of adduct-therapeutic", "setting": "H727 [10]; [16]", "result": "6111 ± 661", "unit": "hr-adducts/10^8 nt"}, {"measurement": "Adduct level-24 hr-therapeutic", "setting": "H727 [10]; [17]", "result": "174 ± 5.6 /10^8 nt"}, {"measurement": "Adduct level-4 hr-microdose", "setting": "H1975 [11]; 1 μM carboplatin", "result": "3.3 ± 0.5 /10^8 nt"}, {"measurement": "AUC of adduct-microdose", "setting": "H1975 [11]; [14]", "result": "47.0 ± 4.8", "unit": "hr-adducts/10^8 nt"}, {"measurement": "Adduct level-24 hr Microdose", "setting": "H1975 [11]; [15]", "result": "1.1 ± 0.6 /10^8 nt"}, {"measurement": "Adduct level-4 hr-therapeutic", "setting": "H1975 [11]; 100 μM carboplatin", "result": "322 ± 24.1 /10^8 nt"}, {"measurement": "AUC of adduct-therapeutic", "setting": "H1975 [11]; [16]", "result": "4478 ± 353", "unit": "hr-adducts/10^8 nt"}, {"measurement": "Adduct level-24 hr-therapeutic", "setting": "H1975 [11]; [17]", "result": "108 ± 33.3 /10^8 nt"}, {"measurement": "Adduct level-4 hr-microdose", "setting": "A549 [12]; 1 μM carboplatin", "result": "2.0 ± 0.4 /10^8 nt"}, {"measurement": "AUC of adduct-microdose", "setting": "A549 [12]; [14]", "result": "31.5 ± 1.6", "unit": "hr-adducts/10^8 nt"}, {"measurement": "Adduct level-24 hr Microdose", "setting": "A549 [12]; [15]", "result": "0.9 ± 0.0 /10^8 nt"}, {"measurement": "Adduct level-4 hr-therapeutic", "setting": "A549 [12]; 100 μM carboplatin", "result": "163 ± 74.4 /10^8 nt"}, {"measurement": "AUC of adduct-therapeutic", "setting": "A549 [12]; [16]", "result": "2331 ± 257", "unit": "hr-adducts/10^8 nt"}, {"measurement": "Adduct level-24 hr-therapeutic", "setting": "A549 [12]; [17]", "result": "74 ± 10.4 /10^8 nt"}, {"measurement": "tumor response (growth after chemotherapy)", "setting": "H23 2A tumor xenograph", "result": "did not display any growth"}, {"measurement": "clinical side effects", "setting": "[13]", "result": "None of the clinical side effects associated with standard therapeutic doses of carboplatin were observed"}, {"measurement": "tolerability of radiolabeled microdose", "setting": "[13]", "result": "well tolerated"}]}
